System: MV-4-11 cells
Test: Gene expression microarray analysis (Affymetrix PrimeView) and GSEA
Assay type: cell-based, human
Set-up: RFU PODN (11730768_x_at) / Fold change /veh PODN (11730768_x_at) / RFU LINC00158 (11744669_a_at) / Fold change /veh LINC00158 (11744669_a_at) / RFU DUSP10 (11751237_a_at) / Fold change /veh DUSP10 (11751237_a_at) / RFU ID3 (11757404_x_at) / Fold change /veh ID3 (11757404_x_at) / RFU PLEKHG5 (11737974_s_at) / Fold change /veh PLEKHG5 (11737974_s_at) / RFU LRRC4B (11730491_at) / Fold change /veh LRRC4B (11730491_at) / RFU GIMAP4 (11747438_a_at) / Fold change /veh GIMAP4 (11747438_a_at) / RFU KRT8 (11758183_x_at) / Fold change /veh KRT8 (11758183_x_at) / RFU CNN1 (11734310_a_at) / Fold change /veh CNN1 (11734310_a_at) / RFU VPS37D (11726825_at) / Fold change /veh VPS37D (11726825_at) / RFU C10orf10 (11716522_x_at) / Fold change /veh C10orf10 (11716522_x_at) / RFU KIR2DL2 /// KIR2DL4 /// KIR2DL5A /// KIR2DL5B /// KIR2DS1 /// KIR2DS2 /// KIR2DS3 /// KIR2DS4 /// KIR3DL3 /// KIR3DL3 /// KIR3DS1 (11738374_at) / Fold change /veh KIR2DL2 /// KIR2DL4 /// KIR2DL5A /// KIR2DL5B /// KIR2DS1 /// KIR2DS2 /// KIR2DS3 /// KIR2DS4 /// KIR3DL3 /// KIR3DL3 /// KIR3DS1 (11738374_at) / RFU C1QL1 (11718748_at) / Fold change /veh C1QL1 (11718748_at) / RFU TMPRSS4 (11747572_a_at) / Fold change /veh TMPRSS4 (11747572_a_at) / RFU HAMP (11756126_x_at) / Fold change /veh HAMP (11756126_x_at) / RFU RNFT2 (11725882_a_at) / Fold change /veh RNFT2 (11725882_a_at) / RFU NR4A2 (11747474_a_at) / Fold change /veh NR4A2 (11747474_a_at) / RFU ABCC12 (11746883_a_at) / Fold change /veh ABCC12 (11746883_a_at) / RFU TMEM136 (11760407_x_at) / Fold change /veh TMEM136 (11760407_x_at) / RFU CLDN22 /// WWC2 (11732394_at) / Fold change /veh CLDN22 /// WWC2 (11732394_at) / RFU HLA-DPB1 (11760878_x_at) / Fold change /veh HLA-DPB1 (11760878_x_at) / RFU SPINT1 (11716480_a_at) / Fold change /veh SPINT1 (11716480_a_at) / RFU GAP43 (11754022_s_at) / Fold change /veh GAP43 (11754022_s_at) / RFU A4GNT (11735810_at) / Fold change /veh A4GNT (11735810_at) / RFU PRB3 (11715151_x_at) / Fold change /veh PRB3 (11715151_x_at) / RFU TUBB4B (11761932_at) / Fold change /veh TUBB4B (11761932_at) / RFU CAPN14 (11732068_a_at) / Fold change /veh CAPN14 (11732068_a_at) / RFU TMCC2 (11721928_a_at) / Fold change /veh TMCC2 (11721928_a_at) / RFU IRGQ (11745062_a_at) / Fold change /veh IRGQ (11745062_a_at) / RFU FAM174B (11720279_a_at) / Fold change /veh FAM174B (11720279_a_at) / RFU TMPRSS4 (11748680_a_at) / Fold change /veh TMPRSS4 (11748680_a_at) / RFU FAM212B (11763350_a_at) / Fold change /veh FAM212B (11763350_a_at) / RFU PLEKHG5 (11743358_a_at) / Fold change /veh PLEKHG5 (11743358_a_at) / RFU ZSCAN30 (11745921_a_at) / Fold change /veh ZSCAN30 (11745921_a_at) / RFU CMKLR1 (11741424_a_at) / Fold change /veh CMKLR1 (11741424_a_at) / RFU LOC101060620 /// MAPK8IP1 (11723275_at) / Fold change /veh LOC101060620 /// MAPK8IP1 (11723275_at) / RFU SPTSSB (11747773_x_at) / Fold change /veh SPTSSB (11747773_x_at) / RFU PRSS12 (11739890_at) / Fold change /veh PRSS12 (11739890_at) / RFU BIN1 (11741810_x_at) / Fold change /veh BIN1 (11741810_x_at) / RFU WNT11 (11732464_a_at) / Fold change /veh WNT11 (11732464_a_at) / RFU C10orf10 (11716521_a_at) / Fold change /veh C10orf10 (11716521_a_at) / RFU C5orf56 (11738089_at) / Fold change /veh C5orf56 (11738089_at) / RFU CYB561 (11721691_x_at) / Fold change /veh CYB561 (11721691_x_at) / RFU ANKRD19P (11752326_a_at) / Fold change /veh ANKRD19P (11752326_a_at) / RFU OR2T12 /// OR2T33 /// OR2T8 (11738714_s_at) / Fold change /veh OR2T12 /// OR2T33 /// OR2T8 (11738714_s_at) / RFU VCAN (11748164_a_at) / Fold change /veh VCAN (11748164_a_at) / RFU JSRP1 (11732532_at) / Fold change /veh JSRP1 (11732532_at) / RFU KRTAP10-11 (11738290_x_at) / Fold change /veh KRTAP10-11 (11738290_x_at) / RFU MYO3A (11730013_a_at) / Fold change /veh MYO3A (11730013_a_at) / RFU EBF3 (11725865_a_at) / Fold change /veh EBF3 (11725865_a_at) / RFU CAMK2N1 (11719241_x_at) / Fold change /veh CAMK2N1 (11719241_x_at) / RFU C5orf56 (11738088_a_at) / Fold change /veh C5orf56 (11738088_a_at) / RFU OLFML3 (11715873_a_at) / Fold change /veh OLFML3 (11715873_a_at) / RFU LOC100653217 /// NTM (11731650_a_at) / Fold change /veh LOC100653217 /// NTM (11731650_a_at) / RFU MAPK11 (11762145_a_at) / Fold change /veh MAPK11 (11762145_a_at) / RFU FIZ1 (11724087_x_at) / Fold change /veh FIZ1 (11724087_x_at) / RFU OASL (11726364_x_at) / Fold change /veh OASL (11726364_x_at) / RFU SOX15 (11748057_x_at) / Fold change /veh SOX15 (11748057_x_at) / RFU CD79A (11719716_a_at) / Fold change /veh CD79A (11719716_a_at) / RFU HIST1H1D (11736915_at) / Fold change /veh HIST1H1D (11736915_at) / RFU CASKIN2 (11723855_a_at) / Fold change /veh CASKIN2 (11723855_a_at) / RFU LOC730098 (11760151_x_at) / Fold change /veh LOC730098 (11760151_x_at) / RFU OR4N2 (11742367_at) / Fold change /veh OR4N2 (11742367_at) / RFU PRRT2 (11749266_a_at) / Fold change /veh PRRT2 (11749266_a_at) / RFU SNX32 (11753110_a_at) / Fold change /veh SNX32 (11753110_a_at) / RFU CDHR5 (11726645_a_at) / Fold change /veh CDHR5 (11726645_a_at) / RFU RCAN1 (11760418_a_at) / Fold change /veh RCAN1 (11760418_a_at) / RFU FAM167A (11723789_a_at) / Fold change /veh FAM167A (11723789_a_at) / RFU FAM26E (11764081_at) / Fold change /veh FAM26E (11764081_at) / RFU ISYNA1 (11749810_s_at) / Fold change /veh ISYNA1 (11749810_s_at) / RFU ACY1 (11761880_at) / Fold change /veh ACY1 (11761880_at) / RFU 11764098_at / Fold change /veh 11764098_at / RFU SAMD14 (11745864_x_at) / Fold change /veh SAMD14 (11745864_x_at) / RFU NPB (11741838_a_at) / Fold change /veh NPB (11741838_a_at) / RFU TMPRSS6 (11731388_a_at) / Fold change /veh TMPRSS6 (11731388_a_at) / RFU KRTAP10-2 (11738614_at) / Fold change /veh KRTAP10-2 (11738614_at) / RFU ARHGAP8 /// PRR5-ARHGAP8 (11727945_x_at) / Fold change /veh ARHGAP8 /// PRR5-ARHGAP8 (11727945_x_at) / RFU KRTAP5-7 /// NADSYN1 (11734609_at) / Fold change /veh KRTAP5-7 /// NADSYN1 (11734609_at) / RFU RASL12 (11751679_a_at) / Fold change /veh RASL12 (11751679_a_at) / RFU CDKN2B (11736163_a_at) / Fold change /veh CDKN2B (11736163_a_at) / RFU PRF1 (11729649_at) / Fold change /veh PRF1 (11729649_at) / RFU, ZNF638 /// ZNF638-IT1 / Fold change vs veh, ZNF638 /// ZNF638-IT1 / RFU, PANK3 / Fold change vs veh, PANK3 / RFU, SH3YL1 / Fold change vs veh, SH3YL1 / RFU, ZEB2 / Fold change vs veh, ZEB2 / RFU, NRIP1 / Fold change vs veh, NRIP1 / RFU, PTTG1IP / Fold change vs veh, PTTG1IP / RFU, CAPN2 / Fold change vs veh, CAPN2 / RFU, MED14 / Fold change vs veh, MED14 / RFU, SNORA58 / Fold change vs veh, SNORA58 / RFU, C1orf63 / Fold change vs veh, C1orf63 / RFU, LRRFIP1 / Fold change vs veh, LRRFIP1 / RFU, NDUFAF7 / Fold change vs veh, NDUFAF7 / RFU, SLC12A2 / Fold change vs veh, SLC12A2 / RFU, IBTK / Fold change vs veh, IBTK / RFU, ESF1 / Fold change vs veh, ESF1 / Fold change vs veh, TMEM50B / RFU, TAOK1 / Fold change vs veh, TAOK1 / RFU, ACBD3 / Fold change vs veh, ACBD3 / RFU, TMA16 / Fold change vs veh, TMA16 / RFU, RWDD3 / Fold change vs veh, RWDD3 / RFU, BCAT1 / Fold change vs veh, BCAT1 / RFU, EDEM3 / Fold change vs veh, EDEM3 / RFU, TMEM33 / Fold change vs veh, TMEM33 / RFU, WDR75 / Fold change vs veh, WDR75 / RFU, AHCTF1 / Fold change vs veh, AHCTF1 / RFU, TFRC / Fold change vs veh, TFRC / RFU, ZDHHC17 / Fold change vs veh, ZDHHC17 / RFU, NOM1 / Fold change vs veh, NOM1 / RFU, ARL8B / Fold change vs veh, ARL8B / RFU, ZBTB11 / Fold change vs veh, ZBTB11 / RFU, TAMM41 / Fold change vs veh, TAMM41 / RFU, KIAA1704 /// LOC100996395 / Fold change vs veh, KIAA1704 /// LOC100996395 / RFU, ING1 / Fold change vs veh, ING1 / RFU, TRMT61B / Fold change vs veh, TRMT61B / RFU, FUBP3 / Fold change vs veh, FUBP3 / RFU, TP53 / Fold change vs veh, TP53 / RFU, TNKS2 / Fold change vs veh, TNKS2 / RFU, ZFP14 / Fold change vs veh, ZFP14 / RFU, ACTR2 / Fold change vs veh, ACTR2 / RFU, PPP3R1 / Fold change vs veh, PPP3R1 / RFU, PIK3R1 / Fold change vs veh, PIK3R1 / RFU, HNRNPA1 / Fold change vs veh, HNRNPA1 / RFU, RNF170 / Fold change vs veh, RNF170 / RFU, ZNF28 / Fold change vs veh, ZNF28 / RFU, RNGTT / Fold change vs veh, RNGTT / RFU, OGT / Fold change vs veh, OGT / RFU, BRD1 / Fold change vs veh, BRD1 / RFU, MARS / Fold change vs veh, MARS / RFU, ZNF655 / Fold change vs veh, ZNF655 / RFU, FAHD1 / Fold change vs veh, FAHD1 / RFU, BDP1 / Fold change vs veh, BDP1 / RFU, LRRCC1 / Fold change vs veh, LRRCC1 / RFU, ARID1A / Fold change vs veh, ARID1A / RFU, ZNF146 / Fold change vs veh, ZNF146 / RFU, ZNF330 / Fold change vs veh, ZNF330 / RFU, GPN3 / Fold change vs veh, GPN3 / RFU, C9orf123 / Fold change vs veh, C9orf123 / RFU, N4BP2L2 / Fold change vs veh, N4BP2L2 / RFU, ARFIP1 / Fold change vs veh, ARFIP1 / RFU, FAM179B / Fold change vs veh, FAM179B / RFU, BCL10 / Fold change vs veh, BCL10 / RFU, UHRF1BP1L / Fold change vs veh, UHRF1BP1L / RFU, BET1 / Fold change vs veh, BET1 / RFU, CNOT2 / Fold change vs veh, CNOT2 / RFU, ZNF268 / Fold change vs veh, ZNF268 / Fold change vs veh, ZNF507 / RFU, DGCR2 / Fold change vs veh, DGCR2 / RFU, WDSUB1 / Fold change vs veh, WDSUB1 / Fold change vs veh, HSP90B1 /// MIR3652 / RFU, ADSS / Fold change vs veh, ADSS / RFU, GK / Fold change vs veh, GK / RFU, ZNF148 / Fold change vs veh, ZNF148 / RFU, TAF9 / Fold change vs veh, TAF9 / RFU, SLC1A5 / Fold change vs veh, SLC1A5 / RFU, SLMO2 / Fold change vs veh, SLMO2 / RFU, ABCC4 / Fold change vs veh, ABCC4 / RFU, LOC101060439 /// RAP1B / Fold change vs veh, LOC101060439 /// RAP1B / RFU, RFX7 / Fold change vs veh, RFX7 / RFU, GTPBP10 / Fold change vs veh, GTPBP10 / RFU, CNEP1R1 / Fold change vs veh, CNEP1R1 / RFU, BIVM-ERCC5 /// ERCC5 / Fold change vs veh, BIVM-ERCC5 /// ERCC5 / RFU, ILF3 / Fold change vs veh, ILF3 / RFU 11762660_at / Fold change /veh 11762660_at / RFU VCAN (11757783_s_at) / Fold change /veh VCAN (11757783_s_at) / RFU DDX43 (11728927_at) / Fold change /veh DDX43 (11728927_at) / RFU KRT8 (11758188_x_at) / Fold change /veh KRT8 (11758188_x_at) / RFU NKD1 (11759106_at) / Fold change /veh NKD1 (11759106_at) / RFU SRD5A1 (11742802_a_at) / Fold change /veh SRD5A1 (11742802_a_at) / RFU TPSAB1 /// TPSB2 (11721975_s_at) / Fold change /veh TPSAB1 /// TPSB2 (11721975_s_at) / RFU GSTM3 (11746129_a_at) / Fold change /veh GSTM3 (11746129_a_at) / RFU IL23R (11737362_x_at) / Fold change /veh IL23R (11737362_x_at) / RFU TMEM51 (11727254_a_at) / Fold change /veh TMEM51 (11727254_a_at) / RFU PIWIL2 (11732686_x_at) / Fold change /veh PIWIL2 (11732686_x_at) / RFU ORM1 (11744905_x_at) / Fold change /veh ORM1 (11744905_x_at) / RFU CCDC152 (11743942_at) / Fold change /veh CCDC152 (11743942_at) / RFU ECM1 (11717891_a_at) / Fold change /veh ECM1 (11717891_a_at) / RFU IL23R (11748794_a_at) / Fold change /veh IL23R (11748794_a_at) / RFU TNFAIP8L3 (11732012_x_at) / Fold change /veh TNFAIP8L3 (11732012_x_at) / RFU MBOAT4 (11741988_at) / Fold change /veh MBOAT4 (11741988_at) / RFU 11764193_at / Fold change /veh 11764193_at / RFU TMEM53 (11763286_at) / Fold change /veh TMEM53 (11763286_at) / RFU MAGEB2 (11727129_at) / Fold change /veh MAGEB2 (11727129_at) / RFU TMEM200A (11744735_a_at) / Fold change /veh TMEM200A (11744735_a_at) / RFU CCDC152 (11751479_a_at) / Fold change /veh CCDC152 (11751479_a_at) / RFU FAM211A (11726209_a_at) / Fold change /veh FAM211A (11726209_a_at) / RFU RGS16 (11746705_a_at) / Fold change /veh RGS16 (11746705_a_at) / RFU VCAN (11755009_s_at) / Fold change /veh VCAN (11755009_s_at) / RFU RHOB (11743442_s_at) / Fold change /veh RHOB (11743442_s_at) / RFU RGS16 (11720943_a_at) / Fold change /veh RGS16 (11720943_a_at) / RFU RGS16 (11720944_at) / Fold change /veh RGS16 (11720944_at) / RFU, VPS4B / Fold change vs veh, VPS4B / RFU, CREB1 / Fold change vs veh, CREB1 / RFU, DNAJC13 / Fold change vs veh, DNAJC13 / RFU, GNAQ / Fold change vs veh, GNAQ / RFU, CDK5R1 / Fold change vs veh, CDK5R1 / RFU, ZRANB3 / Fold change vs veh, ZRANB3 / RFU, CUL4A / Fold change vs veh, CUL4A / RFU, CCNY / Fold change vs veh, CCNY / RFU, UFL1 / Fold change vs veh, UFL1 / RFU, COG3 / Fold change vs veh, COG3 / RFU, DIAPH2 / Fold change vs veh, DIAPH2 / RFU, SKA2 / Fold change vs veh, SKA2 / RFU, AFF3 / Fold change vs veh, AFF3 / RFU, LMF1 / Fold change vs veh, LMF1 / RFU, IPO11 / Fold change vs veh, IPO11 / RFU, DFFB / Fold change vs veh, DFFB / RFU, FOXP1 / Fold change vs veh, FOXP1 / RFU, CARD8 / Fold change vs veh, CARD8 / RFU, STRN3 / Fold change vs veh, STRN3 / RFU, ADK / Fold change vs veh, ADK / RFU, RASSF2 / Fold change vs veh, RASSF2 / RFU, WIPF1 / Fold change vs veh, WIPF1 / RFU, LARP1B / Fold change vs veh, LARP1B / RFU, RASA1 / Fold change vs veh, RASA1 / RFU, RB1 / Fold change vs veh, RB1 / RFU, PPFIA1 / Fold change vs veh, PPFIA1 / RFU, MAT2A / Fold change vs veh, MAT2A / RFU, CCT5 / Fold change vs veh, CCT5 / RFU, WDR92 / Fold change vs veh, WDR92 / RFU, CUX1 / Fold change vs veh, CUX1 / RFU, TTC7A / Fold change vs veh, TTC7A / RFU, TMEM135 / Fold change vs veh, TMEM135 / RFU, DEPTOR / Fold change vs veh, DEPTOR / RFU, CPM / Fold change vs veh, CPM / RFU, DNAJB6 / Fold change vs veh, DNAJB6 / RFU, CACNA2D3 / Fold change vs veh, CACNA2D3 / RFU, DTX4 / Fold change vs veh, DTX4 / RFU, TFCP2 / Fold change vs veh, TFCP2 / RFU, GMCL1 /// GMCL1P1 / Fold change vs veh, GMCL1 /// GMCL1P1 / RFU, AEBP2 / Fold change vs veh, AEBP2 / RFU, SNHG1 /// SNORD22 /// SNORD25 /// SNORD26 /// SNORD27 /// SNORD28 /// SNORD29 /// SNORD31 / Fold change vs veh, SNHG1 /// SNORD22 /// SNORD25 /// SNORD26 /// SNORD27 /// SNORD28 /// SNORD29 /// SNORD31 / Fold change (Aza/veh), C12orf56 (ProbeSet 11735607_a_at) / Fold change (ACY-1035/veh), C12orf56 (ProbeSet 11735607_a_at) / Fold change (Aza/veh), FGFR1OP (ProbeSet 11751329_s_at) / Fold change (ACY-1035/veh), FGFR1OP (ProbeSet 11751329_s_at) / Fold change (Aza/veh), VPS36 (ProbeSet 11739960_a_at) / Fold change (ACY-1035/veh), VPS36 (ProbeSet 11739960_a_at) / RFU SYPL1 (11715823_x_at) / Fold change /veh SYPL1 (11715823_x_at) / RFU IGFBP7 (11715501_s_at) / Fold change /veh IGFBP7 (11715501_s_at) / RFU REEP3 (11722064_at) / Fold change /veh REEP3 (11722064_at) / RFU IGLL1 (11728026_x_at) / Fold change /veh IGLL1 (11728026_x_at): dose or concentration left out as unconfirmed
Settings: MV-4-11 cells, 48 hours

For Nc1ncn([C@@H]2O[C@H](CO)[C@@H](O)[C@H]2O)c(=O)n1 [azacitidine], the “RFU JSRP1 (11732532_at)” value was 47.93 RFU.
